Reference: PMC6963541, “Synthesis and Biological Evaluation of Lipophilic Nucleoside Analogues as Inhibitors of Aminoacyl-tRNA Synthetases” (Antibiotics, 2019)

These compounds were tested against T1, E. coli IleRS (Escherichia coli, UniProt P00956) (assay: radiolabel aminoacyl transfer assay ([…]-Ile to tRNA, TCA precipitation)). Settings: not given.
T1 construct: gene ileS; purified recombinant E. coli IleRS
T1 sequence (P00956 2-938): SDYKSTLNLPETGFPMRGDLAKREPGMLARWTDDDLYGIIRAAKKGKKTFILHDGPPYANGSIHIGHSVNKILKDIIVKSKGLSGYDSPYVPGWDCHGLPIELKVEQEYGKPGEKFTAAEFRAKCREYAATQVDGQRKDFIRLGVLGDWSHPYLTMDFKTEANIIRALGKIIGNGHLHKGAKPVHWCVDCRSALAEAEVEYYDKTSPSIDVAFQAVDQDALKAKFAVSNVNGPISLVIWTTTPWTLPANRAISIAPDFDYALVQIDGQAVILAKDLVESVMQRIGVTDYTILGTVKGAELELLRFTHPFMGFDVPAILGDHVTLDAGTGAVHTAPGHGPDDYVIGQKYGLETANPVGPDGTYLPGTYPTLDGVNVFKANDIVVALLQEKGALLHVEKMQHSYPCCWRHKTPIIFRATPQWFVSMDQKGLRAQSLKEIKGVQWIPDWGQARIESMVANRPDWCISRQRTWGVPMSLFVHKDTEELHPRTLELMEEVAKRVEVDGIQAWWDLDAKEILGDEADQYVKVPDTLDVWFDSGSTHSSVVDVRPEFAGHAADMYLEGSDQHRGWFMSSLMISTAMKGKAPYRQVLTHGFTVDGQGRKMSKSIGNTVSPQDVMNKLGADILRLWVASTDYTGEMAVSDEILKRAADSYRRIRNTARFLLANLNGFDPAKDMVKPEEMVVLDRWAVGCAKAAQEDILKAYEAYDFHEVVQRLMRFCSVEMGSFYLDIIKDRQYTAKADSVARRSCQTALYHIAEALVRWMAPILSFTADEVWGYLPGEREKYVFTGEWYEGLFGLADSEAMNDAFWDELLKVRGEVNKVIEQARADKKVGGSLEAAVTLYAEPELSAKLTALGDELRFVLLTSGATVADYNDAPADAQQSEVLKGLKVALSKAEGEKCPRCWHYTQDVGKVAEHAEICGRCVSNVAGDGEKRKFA
Format: biochemical
In the case of `CC[C@H](C)[C@H](N)C(=O)NS(=O)(=O)OC[C@H]1O[C@@H](n2cnc3c(NC)ncnc32)[C@H](O)[C@@H]1O` [6a, 5′-O-(N-L-isoleucyl)-sulfamoyl-N^6-methyl-adenosine], the IC50 is reported as 13.9 ± 1 nM.
In the case of `CC[C@H](C)[C@H](N)C(=O)NS(=O)(=O)OC[C@H]1O[C@@H](n2cnc3c(Nc4ccccc4)ncnc32)[C@H](O)[C@@H]1O` [6e, 5′-O-(N-L-isoleucyl)-sulfamoyl-N^6-phenyl-adenosine], the IC50 is reported as 10.5 ± 1 nM.
Work on `CCCCCCCCNc1ncnc2c1ncn2[C@@H]1O[C@H](COS(=O)(=O)NC(=O)[C@@H](N)[C@@H](C)CC)[C@@H](O)[C@H]1O` [6b, 5′-O-(N-L-isoleucyl)-sulfamoyl-N^6-octyl-adenosine] yielded an IC50 of 42.8 ± 1 nM.
Compound `CC[C@H](C)[C@H](N)C(=O)NS(=O)(=O)OC[C@H]1O[C@@H](n2cnc3c(OC)ncnc32)[C@H](O)[C@@H]1O` [6f, 5′-O-(N-L-isoleucyl)-sulfamoyl-6-O-methyl-purine riboside] has an IC50 of 4.9 ± 1.1 nM.

What follows are compounds tested against T1, E. coli IleRS in the same assay as above. Settings: 10 nM IleRS, 50 µM 14C-isoleucine, 2 mg/mL tRNA, 500 µM ATP, 10 mM MgCl2, pH 7.5, 37 °C, 10 min preincubation; dose-response curve not determined.
Format: biochemical
`CCCCCCCCCCCCNc1ncnc2c1ncn2[C@@H]1O[C@H](COS(=O)(=O)NC(=O)[C@@H](N)[C@@H](C)CC)[C@@H](O)[C@H]1O` [6c, 5′-O-(N-L-isoleucyl)-sulfamoyl-N^6-dodecyl-adenosine] was tested, and the relative activity was “the dodecyl derivative 6c was active in submicromolar range”.
In the case of `CCCCCCCCCCCCCCCCCCNc1ncnc2c1ncn2[C@@H]1O[C@H](COS(=O)(=O)NC(=O)[C@@H](N)[C@@H](C)CC)[C@@H](O)[C@H]1O` [6d, 5′-O-(N-L-isoleucyl)-sulfamoyl-N^6-octadecyl-adenosine], the relative activity is reported as “the octadecyl compound 6d was found to be active only in the micromolar range”.
